Data from patent publication US10869878B2, “Vaginal composition and use thereof” (SINGAPORE ZE&Z INTERNATIONAL PTE. LTD, priority 2014, dated 2020).

Legend:
BV-associated bacteria = assay: Acid production by BV-associated bacteria in semi-solid agars containing a carbohydrate, anaerobic incubation (Experimental Example 2); type: cell-based; conditions: 24 hrs anaerobic, 37° C., 1.5% (w/v) carbohydrate, initial pH 5.4
Text: (1) Grouping in experiment: • (1) Glucose group: containing 1.5% (w/v) glucose, MRS basal medium without carbohydrate, 5% (w/v) calf serum, and 0.45% (w/v) agar, pH5.4; • (2) Fructose group: containing 1.5% (w/v) fructose, MRS basal medium without carbohydrate, 5% (w/v) calf serum, and 0.45% (w/v) agar, pH5.4; • (3) Mannose group: containing 1.5% (w/v) mannose, MRS basal medium without carbohydrate, 5% (w/v) calf serum, and 0.45% (w/v) agar, pH5.4; • (4) Sucrose group: containing 1.5% (w/v) sucrose, MRS basal medium without carbohydrate, 5% (w/v) calf serum, and 0.45% (w/v) agar, pH5.4; • (5) Maltose group: containing 1.5% (w/v) maltose, MRS basal medium without carbohydrate, 5% (w/v) calf serum, and 0.45% (w/v) agar, pH5.4; • (6) Isomaltose group: containing 1.5% (w/v) isomaltose, MRS basal medium without carbohydrate, 5% (w/v) calf serum, and 0.45% (w/v) agar, pH5.4; and • (7) Isomaltulose group: containing 1.5% (w/v) isomaltulose, MRS basal medium without carbohydrate, 5% (w/v) calf serum, and 0.45% (w/v) agar, pH5.4.
The semi-solid agar of each group was formulated essentially following the method described in Composition Example 1, then sterilized, added with calf serum, and packed in test tubes in a specification of 5 g/tube, for late use.
(2) Secretion specimens from BV patients: vaginal secretions from 5 BV patients; and the criteria of inclusion are: • (1) conforming to the Amsel clinical criteria of BV diagnosis, wherein the pH value of the vaginal secretions was >4.6; • (2) after smearing, Gram staining and microscopical examination of vaginal secretions, Nugent score ≥7; and • (3) no other vaginosis and no antimicrobial agent is used within two weeks.
(3) After sampling, the secretion specimens from BV patients meeting the criteria of inclusion were immediately inoculated to the above 7 aseptic semi-solid agars containing a carbohydrate at the bedside and anaerobically incubated at 37° C. for 24 hrs. The pH values of the agar matrices are detected with a precise pH test paper.

[1] = tested on: Bifidobacteria in the secretions from BV patients; assay: Selective promotion of carbohydrate containing gels for the growth of Bifidobacteria (Experimental Example 4); type: cell-based; conditions: secretions from 20 BV patients; 1% (w/v) carbohydrate gel, 48 hrs slightly aerobic
Description: (3) After sampling, the vaginal secretion specimens from BV patients meeting the criteria of inclusion were immediately inoculated to the above 4 gels containing a carbohydrate, slightly aerobically incubated at 37° C. for 48 hrs, then transferred to a plate containing improved MRS with 1% (w/v) glucose and 5% (w/v) calf serum, slightly aerobically incubated for 20-48 hrs, isolated, purified and multiplied. The strain was identified by 16s rDNA sequencing.

Row | SMILES | pH of the semi-solid agar (BV-associated bacteria; Specimen 1) | pH of the semi-solid agar (BV-associated bacteria; Specimen 2) | pH of the semi-solid agar (BV-associated bacteria; Specimen 3) | pH of the semi-solid agar (BV-associated bacteria; Specimen 4) | pH of the semi-solid agar (BV-associated bacteria; Specimen 5) | number of samples positive for Bifidobacterium bifidum [1] | number of samples positive for Bifidobacterium breve [1] | number of samples positive for Bifidobacterium dentium [1] | number of samples positive for Bifidobacterium longum [1] | samples positive for Bifidobacteria, In total [1]
1 | OC[C@H]1O[C@H](OC[C@H]2OC(O)[C@H](O)[C@@H](O)[C@@H]2O)[C@H](O)[C@@H](O)[C@@H]1O (stereo partly drawn) [Isomaltose, isomaltose] | 3.8-4.1 | 4.1 | 3.8 | 3.8 | 3.8 | 0 | 0 | 0 | 0 | 0
2 | OC[C@H]1O[C@H](OC[C@H]2OC(O)(CO)[C@@H](O)[C@@H]2O)[C@H](O)[C@@H](O)[C@@H]1O (stereo partly drawn) [Isomaltulose, isomaltulose] | 3.8 | 3.8 | 3.8 | 3.8 | 3.8 | 0 | 0 | 0 | 0 | 0
3 | OC[C@H]1O[C@@](CO)(O[C@H]2O[C@H](CO)[C@@H](O)[C@H](O)[C@H]2O)[C@@H](O)[C@@H]1O [Sucrose, sucrose] | 4.1-4.4 | 3.8-4.1 | 3.8 | 4.1 | 3.8 | 0 | 0 | 0 | 0 | 0
